The structures appear in SMILES notation.

In one experiment the test system is EW-22 (Ewing's Sarcoma). The experiment in a line: combination Emax (second highest fraction inhibited in the dose matrix, 72 h); higher = more inhibition; extreme values may be limits of the assay. Put shortly: (§1)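 Cell lines in DMEM/F12 or RPMI with 10% FBS were plated in 1536-well plates, held 24 hours at 37°C, 5% CO2, then given two-drug dose matrices for 72 hours (DMSO typically 0.2%). Viability was read by CellTiter-Glo 2.0 luminescence and scaled as inhibition from 0 (vehicle wells) to 1 (blank wells). Combination Emax is the second-highest inhibition in the matrix; Bliss excess is observed combination effect minus expected EA + EB − EA·EB, EA and EB being single-agent effects.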

For experiment [1], the system named is YT (Other Blood Carcinomas). The experiment is described as above. Put shortly: as §1
Experiment [2] deals with SK-UT-1 (Other Solid Carcinomas). The description is as above. Put shortly:
as §1

Experiment [3] relates to TYK-nu (Ovarian Carcinoma). The description is as above. Put shortly: as §1
For experiment [4], the system named is WSU-DLCL2 (B-Cell Non-Hodgkin's Lymphoma). The experiment is described as above. Put shortly:
as §1

The next experiment concerns HCC38 (Breast Carcinoma). The experiment is described as above. Put shortly: as §1
Experiment [5] relates to DOK (Oral Cavity Carcinoma). The experiment is described as above. Put shortly: as §1
The test system of experiment [6] is MES-SA (Other Solid Carcinomas). The experiment is described as above. Put shortly:
as §1

Experiment [7] concerns ETK-1 (Biliary Tract Carcinoma). Described as above. Put shortly: as §1
Experiment [8] deals with BICR78 (Oral Cavity Carcinoma). The description is as above. Put shortly: as §1
The subject of experiment [9] is SNG-M (Endometrial Carcinoma). The experiment is described as above. Put shortly: as §1
Experiment [10] concerns HLE (Hepatocellular Carcinoma). The description is as above. Put shortly:
as §1

Experiment [11] relates to P31-FUJ (Acute Myeloid Leukemia). The description is as above. Put shortly:
as §1

Experiment [12] deals with 647-V (Bladder Carcinoma). The experiment is described as above. Put shortly:
as §1

For experiment [13], the system named is SK-LMS-1 (Other Solid Carcinomas). The experiment in a line: Bliss excess, mean over the matrix (fraction); higher = more synergy. Put shortly:
as §1

The subject of experiment [14] is JHH-6 (Hepatocellular Carcinoma). The experiment is described as above. Put shortly: as §1
Experiment [15] concerns HCT-116 (Colorectal Carcinoma). Described as above. Put shortly: as §1
In experiment [16] the test system is MES-SA (Other Solid Carcinomas). The experiment is described as above. Put shortly:
as §1

The subject of experiment [17] is BICR78 (Oral Cavity Carcinoma). The description is as above. Put shortly:
as §1

Experiment [18] relates to EKVX (Non-Small Cell Lung Carcinoma). The experiment is described as above. Put shortly: as §1

Consider `CN(CCO)CC[C@H](CSc1ccccc1)Nc1ccc(S(=O)(=O)NC(=O)c2ccc(N3CCC([C@@H](O)c4ccccc4-c4ccc(Cl)cc4)CC3)cc2)cc1S(=O)(=O)C(F)(F)F` [AZD4320] + C1CN(CCC1(C(=O)N[C@@H](CCO)C2=CC=C(C=C2)Cl)N)C3=NC=NC4=C3C=CN4 [Capivasertib] (first compound max 1 µM, 7x7, partner max 3 µM), for which the “combination Emax” value with EW-22 (Ewing's Sarcoma) worked out at 0.851; in experiment [1], 0.212; in [2], 0.226; in [3], 0.244; in experiment [4], 1; with HCC38 (Breast Carcinoma) it was 0.848. Moreover, the “combination Emax” value in experiment [5] was 0.39; in experiment [6], 0.282; in [7] it was 0.175; in experiment [8], 0.244; in [9], 0.528; in experiment [10], 0.274. The “combination Emax” value worked out at 0.869 in [11] and 0.147 in experiment [12]. Also, the Bliss excess in [13] was -0.0225; in [14], -0.0437; in [15], -0.0366; in experiment [16], -0.0088; in [17] it was -0.0097; in [18], -0.0309.

`CN(C)CCCOc1ccc(-c2ccc3ncc4c(c3c2)n(C2CCOCC2)c(=O)n4C)cn1` [AZD0156] + C=CCn1c(=O)c2cnc(Nc3ccc(N4CCN(C)CC4)cc3)nc2n1-c1cccc(C(C)(C)O)n1 [AZD1775] (first compound max 1 µM, partner max 1 µM): the “combination Emax” value in the experiment with EW-22 (Ewing's Sarcoma) is 0.616; in experiment [1], 0.888; in [2] it was 0.635; in experiment [3], 0.679; in [4] it was 0.944; with HCC38 (Breast Carcinoma) it was 0.505. Also, the “combination Emax” value was 0.375 in experiment [5]; 0.768 in [6]; 0.515 in [7]; 0.311 in [8]; 0.58 in experiment [9]; 0.747 in [10]. The “combination Emax” value amounted to 0.912 in [11] and 0.446 in [12]. Moreover, the Bliss excess was -0.0203 in experiment [13]; -0.0798 in experiment [14]; -0.0016 in [15]; 0.0372 in experiment [16]; -0.0107 in experiment [17]; -0.0358 in [18].

Regarding `CN(CCO)CC[C@H](CSc1ccccc1)Nc1ccc(S(=O)(=O)NC(=O)c2ccc(N3CCC([C@@H](O)c4ccccc4-c4ccc(Cl)cc4)CC3)cc2)cc1S(=O)(=O)C(F)(F)F` [AZD4320] + CN(C)CCCOc1ccc(-c2ccc3ncc4c(c3c2)n(C2CCOCC2)c(=O)n4C)cn1 [AZD0156] (first compound max 1 µM, 7x7, partner max 1 µM), the “combination Emax” value in the experiment with EW-22 (Ewing's Sarcoma) was 0.897; in experiment [1], 0.623; in [2], 0.0694; in experiment [3], 0.165; in [4], 0.581; in the experiment on HCC38 (Breast Carcinoma), 0.812. Further, the “combination Emax” value is 0.136 in experiment [5]; 0.128 in [6]; 0.112 in experiment [7]; 0.134 in experiment [8]; 0.328 in [9]; 0.399 in experiment [10]. For the same compound, the “combination Emax” value in experiment [11] was 0.814; in experiment [12], 0.172. Besides, the Bliss excess in experiment [13] is -0.0477; in experiment [14] it was -0.0367; in experiment [15] it was -0.0518; in experiment [16] it was -0.0315; in [17], -0.0268; in experiment [18], -0.0392.

Regarding `CN(CCO)CC[C@H](CSc1ccccc1)Nc1ccc(S(=O)(=O)NC(=O)c2ccc(N3CCC([C@@H](O)c4ccccc4-c4ccc(Cl)cc4)CC3)cc2)cc1S(=O)(=O)C(F)(F)F` [AZD4320] + C[C@@H](Nc1cc(F)cc(F)c1)c1cc(C(=O)N(C)C)cc2c(=O)cc(N3CCOCC3)oc12 [AZD8186] (first compound max 1 µM, 7x7, partner max 3 µM), the “combination Emax” value with EW-22 (Ewing's Sarcoma) is 1; in experiment [1], 0.676; in experiment [2], 0.273; in [3], 0.645; in experiment [4], 0.978; with HCC38 (Breast Carcinoma), 0.884. For the same compound, the “combination Emax” value in [5] was found to be 0.301; in [6], 0.297; in experiment [7], 0.324; in experiment [8], 0.446; in experiment [9] it was 0.674; in experiment [10] it was 0.48. Besides, the entries for the “combination Emax” value in experiment [11] and in experiment [12] were 0.543 and 0.989, respectively. Also, the Bliss excess in experiment [13] is 0.0304; in experiment [14], -0.0164; in [15] it was 0.0266; in [16], 0.0139; in [17], -0.0594; in experiment [18] it was -0.0127.

For the compound `CN(CCO)CC[C@H](CSc1ccccc1)Nc1ccc(S(=O)(=O)NC(=O)c2ccc(N3CCC([C@@H](O)c4ccccc4-c4ccc(Cl)cc4)CC3)cc2)cc1S(=O)(=O)C(F)(F)F` [AZD4320] + CCN(CCO)CCCOc1ccc2c(Nc3cc(CC(=O)Nc4cccc(F)c4)[nH]n3)ncnc2c1 [AZD2811] (first compound max 1 µM, 7x7, partner max 1 µM), the “combination Emax” value was found to be 1 in the experiment with EW-22 (Ewing's Sarcoma); 0.196 in [1]; 0.414 in [2]; 0.27 in [3]; 0.907 in [4]; 0.802 in the experiment with HCC38 (Breast Carcinoma). Also, the “combination Emax” value worked out at 0.747 in experiment [5]; 0.513 in experiment [6]; 0.26 in experiment [7]; 0.313 in experiment [8]; 0.775 in experiment [9]; 0.721 in experiment [10]. The “combination Emax” value in experiment [11] was found to be 0.954; in [12], 0.708. The Bliss excess in experiment [13] was 0.0619; in experiment [14], 0.0044; in experiment [15] it was 0.108; in experiment [16], 0.0657; in experiment [17], -0.0008; in experiment [18], -0.0476.

Take `CC(=O)Nc1cccc(-n2c(=O)n(C3CC3)c(=O)c3c(Nc4ccc(I)cc4F)n(C)c(=O)c(C)c32)c1` [Trametinib] + Cc1nc(-c2cn3c(n2)-c2ccc(-c4cnn(C(C)(C)C(N)=O)c4)cc2OCC3)n(C(C)C)n1 [Taselisib] (first compound max 1 µM, 7x7, partner max 10 µM): the “combination Emax” value in the experiment with EW-22 (Ewing's Sarcoma) was 0.722; in experiment [1], 0.711; in [2] it was 0.597; in experiment [3], 0.737; in [4], 0.936; in the experiment with HCC38 (Breast Carcinoma), 0.364. Further, the “combination Emax” value was 0.998 in [5]; 0.825 in [6]; 0.86 in experiment [7]; 0.726 in experiment [8]; 0.871 in experiment [9]; 0.401 in [10]. For the same compound, the figures for the “combination Emax” value in experiment [11] and in experiment [12] were 0.915 and 0.456, respectively. The Bliss excess is 0.0854 in experiment [13]; 0.152 in experiment [14]; 0.124 in experiment [15]; 0.062 in [16]; 0.0654 in experiment [17]; 0.136 in experiment [18].

The values are drawn from the supplement of paper PMC11061612.
